4 compounds from ChEMBL document CHEMBL6096686, “Lanosterol 14α-Demethylase (CYP51)/Heat Shock Protein 90 (Hsp90) Dual Inhibitors for the Treatment of Invasive Candidiasis” (J Med Chem, 2025) can be followed below.

Converted amounts (≈) assume the structure as drawn. The source made the active and inactive calls. No cut-off for these calls is given here.

Data set [1] concerns Candida albicans. The data set is described as follows: Antifungal activity against Candida albicans SC5314 incubated for 48 hrs by CLSI based liquid microdilution technique. It counts as functional.
The test system of data set [2] is Nakaseomyces glabratus. The data set can be described thus: Antifungal activity against Candida glabrata 7804 incubated for 48 hrs by CLSI based liquid microdilution technique. The data set is classed as functional.
The subject of data set [3] is Cryptococcus neoformans. The data set is described as follows: Antifungal activity against Cryptococcus neoformans H99 incubated for 72 hrs by CLSI based liquid microdilution technique. The data set is classed as functional.
Data set [4] has as its system Pichia kudriavzevii. The data set can be described thus: Antifungal activity against Candida krusei 10153 incubated for 48 hrs by CLSI based liquid microdilution technique. It counts as functional.
Data set [5] has as its system Candida albicans. The data set is described as follows: Synergistic antifungal activity against Candida albicans SC5314 incubated for 48 hrs in presence of FLC by CLSI based liquid microdilution technique. It counts as functional.
Data set [6] has as its system Cryptococcus neoformans. The data set is described as follows: Synergistic antifungal against Cryptococcus neoformans H99 incubated for 72 hrs in presence of FLC by CLSI based liquid microdilution technique. The data set is classed as functional.
Data set [7] relates to Nakaseomyces glabratus. The data set is described as follows: Synergistic antifungal activity against Candida glabrata 7804 incubated for 48 hrs in presence of FLC by CLSI based liquid microdilution technique. It counts as functional.
Data set [8] concerns Pichia kudriavzevii. The data set can be described thus: Synergistic antifungal activity against Candida krusei 10153 incubated for 48 hrs in presence of FLC by CLSI based liquid microdilution technique. It counts as functional.
Data set [9] in a line: Cytotoxicity against HUVEC cells measured after 72 hrs by CCK8 assay. It counts as toxicity, cell-based. To be noted: human.
Data set [10] can be described thus: Cytotoxicity against human L02 cells measured after 72 hrs by CCK8 assay. The data set is classed as toxicity, cell-based.
The target of data set [11] is Lanosterol 14-alpha demethylase (Candida albicans (strain SC5314 / ATCC MYA-2876) (Yeast), UniProt P10613). The data set is described as follows: Inhibition of CYP51 in Candida albicans SC5314 assessed as decrease in ergosterol level at 4 ug/ml measured after 48 hrs by GC-MS analysis. As to conditions: at 4 µg/mL.
Lanosterol 14-alpha demethylase, sequence (P10613 whole entry): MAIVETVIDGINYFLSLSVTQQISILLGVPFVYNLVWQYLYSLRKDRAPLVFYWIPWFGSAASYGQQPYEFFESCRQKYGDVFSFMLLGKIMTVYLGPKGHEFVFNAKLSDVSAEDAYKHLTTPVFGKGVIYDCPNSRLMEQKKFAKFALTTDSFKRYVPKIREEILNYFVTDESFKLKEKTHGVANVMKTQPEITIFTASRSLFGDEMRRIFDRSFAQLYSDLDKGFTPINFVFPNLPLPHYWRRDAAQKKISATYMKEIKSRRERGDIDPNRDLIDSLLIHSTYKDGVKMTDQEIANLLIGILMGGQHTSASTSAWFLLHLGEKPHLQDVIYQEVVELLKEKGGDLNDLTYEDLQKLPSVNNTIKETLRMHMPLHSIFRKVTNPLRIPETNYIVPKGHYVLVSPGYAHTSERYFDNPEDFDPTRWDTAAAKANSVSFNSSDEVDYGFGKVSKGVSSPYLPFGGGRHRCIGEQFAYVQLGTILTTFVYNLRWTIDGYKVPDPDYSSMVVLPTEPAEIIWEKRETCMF
Data set [12] has as its target Heat shock protein 90 homolog (Candida albicans (strain SC5314 / ATCC MYA-2876) (Yeast), UniProt P46598). The data set is described as follows: Inhibition of HSP90 extracted from Candida albicans SC5314 lysate using FITC-Geldanamycin as substrate incubated for 6 hrs by fluorescence polarization assay. It counts as subcellular.
The target in data set [13] is Heat shock protein HSP90 (Homo sapiens, UniProt P07900+P08238). The data set is described as follows: Inhibition of human HSP90 using FITC-Geldanamycin as substrate incubated for 6 hrs by fluorescence polarization assay. It counts as protein assay.
Data set [14] relates to Candida albicans. The data set can be described thus: Inhibition of biofilm formation in Candida albicans SC5314 at 4 ug/ml incubated for 24 hrs by XTT reduction method relative to control. To be noted: dose 4.0 µg/ml. The data set is classed as functional.
Data set [15] concerns Candida albicans. The data set can be described thus: Antifungal activity against Candida albicans SC5314 infected in immunosuppressed ICR mouse assessed as reduction in fungal burden in kidney at 10 mg/kg, ip treated for 5 days consecutively. It counts as functional, organism-based. As to conditions: time 5.0 day.
Data set [16] deals with Candida albicans. The data set can be described thus: Synergistic antifungal activity against Candida albicans SC5314 infected in immunosuppressed ICR mouse assessed as reduction in fungal burden in kidney at 10 mg/kg, ip treated for 5 days consecutively in presence of FLC. To be noted: time 5.0 day. The data set is classed as functional, organism-based.

Heat shock protein 90 homolog, sequence (P46598 whole entry): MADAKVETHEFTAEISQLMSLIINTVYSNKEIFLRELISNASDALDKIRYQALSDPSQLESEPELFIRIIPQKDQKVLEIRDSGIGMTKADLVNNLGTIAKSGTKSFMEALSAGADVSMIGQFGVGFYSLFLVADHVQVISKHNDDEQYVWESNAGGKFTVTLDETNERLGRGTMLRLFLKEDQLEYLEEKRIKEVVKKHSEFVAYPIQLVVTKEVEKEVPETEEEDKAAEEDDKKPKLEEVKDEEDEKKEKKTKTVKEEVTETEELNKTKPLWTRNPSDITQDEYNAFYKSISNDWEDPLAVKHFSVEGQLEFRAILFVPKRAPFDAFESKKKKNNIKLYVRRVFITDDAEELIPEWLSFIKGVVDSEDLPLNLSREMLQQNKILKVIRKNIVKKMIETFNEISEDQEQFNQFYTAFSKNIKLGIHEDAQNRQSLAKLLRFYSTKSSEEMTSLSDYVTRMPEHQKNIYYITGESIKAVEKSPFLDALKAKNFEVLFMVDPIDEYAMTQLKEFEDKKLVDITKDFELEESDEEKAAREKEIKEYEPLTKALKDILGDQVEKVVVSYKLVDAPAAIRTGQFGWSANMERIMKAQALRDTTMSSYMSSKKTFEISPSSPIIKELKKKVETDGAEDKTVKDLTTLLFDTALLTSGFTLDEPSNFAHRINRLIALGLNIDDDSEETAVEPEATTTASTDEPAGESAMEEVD

With `CCN(C(=O)c1cc(-c2ccc(C)cc2)c(O)cc1O)c1ccc(CN2CCN(C(=O)CCCOc3ccc(CN(C)CC(O)(Cn4cncn4)c4ccc(F)cc4F)cc3)CC2)cc1` (stereo not drawn), the MIC80 in data set [1] came to 8 µg/mL (≈ 9.01 µM); in data set [2], 16 µg/mL (≈ 18 µM); in data set [3], 4 µg/mL (≈ 4.5 µM); in data set [4] it was 16 µg/mL (≈ 18 µM).

With `CCN(C(=O)c1cc(-c2ccc(C)cc2)c(OCc2ccccc2)cc1OCc1ccccc1)c1ccc(CN2CCN(CC(O)(Cn3cncn3)c3ccc(F)cc3F)CC2)cc1` (stereo not drawn), the MIC80 is above 64 µg/mL in data set [1], 16 µg/mL (≈ 18.5 µM) in data set [2], above 64 µg/mL in data set [3] and above 64 µg/mL in data set [4].

With `CCNC(=O)c1noc(-c2cc(-c3ccc(C)cc3)c(O)cc2O)c1-c1ccc(CN2CCOCC2)cc1`, the MIC80 in data set [1] was 32 µg/mL (≈ 62.3 µM); in [2], above 64 µg/mL; in data set [3], 32 µg/mL (≈ 62.3 µM); in [4], above 64 µg/mL. In addition, the “fractional inhibitory concentration index (FICI)” value amounted to 0.13 in [5], 0.31 in data set [6], 0.5 in data set [7] and 2 in data set [8]. Besides, the IC50 at 72 h in data set [9] and in [10] was 680 nM in each case. Also, the “inhibition (INH)” value in [11] is “Not_active”. Besides, the IC50 in data set [12] came to 390 nM; in data set [13] it was 1540 nM. Further, in data set [14], the inhibition entry is “Active; Exhibited Little Inhibitory Effect”. Moreover, the outcome in [15] was inactive. For the same compound, in data set [16], the result was Active.

Take `CCN(C(=O)c1cc(-c2ccc(C)cc2)c(O)cc1O)c1ccc(CN2CCN(C(=O)CCCCCOc3ccc(CN(C)CC(O)(Cn4cncn4)c4ccc(F)cc4F)cc3)CC2)cc1` (stereo not drawn): the MIC80 was 8 µg/mL (≈ 8.73 µM) in [1], 16 µg/mL (≈ 17.5 µM) in data set [2], 8 µg/mL (≈ 8.73 µM) in [3] and 32 µg/mL (≈ 34.9 µM) in data set [4].
